Results reported in patent EP0745083B1, “2-HETEROARYL-5,11-DIHYDRO-6H-DIPYRIDO [3,2-b:2',3'-e][1,4]DIAZEPINES AND THEIR USE IN THE PREVENTION OR TREATMENT OF HIV INFECTION” (BOEHRINGER INGELHEIM PHARMACEUTICALS INC., priority 1994, dated 1995).

Assays:
[1] = test system: HTLV-IIIB strain of HIV-1; assay: Syncytia (human T-cell culture) assay; type: cell-based; settings: Human immunodeficiency virus 1, IIIB, 96 h; c8166 cells; read four days after virus challenge
Description: In order to confirm that compounds which are active in the RT Assay also have the ability to inhibit HIV replication in a living system, compounds according to the invention were also tested in the human T-Cell Culture (Syncytia) Assay described below.
Formation of syncytia is a feature of in vitro cultures of CD4+ T-cells infected with HIV-1. In this assay, T-cells are treated with a putative replication inhibiting compound and then infected with HIV-1. After incubation, the culture is checked for the formation of syncytia. The absence or reduction in the number of syncytia is used as a measure of the test compound's ability to inhibit HIV replication.
The target cells, designated c8166, are a subclone of human lymphoma cells of T-cell origin and are established at an initial density of 5x10^4 per 100 ul in RPMI 1640 (+ 10% fetal bovine serum) culture medium in 96 well flat bottom plates. A selected amount of test compound, dissolved in DMSO, is included. After 24 hours, 50-100 TCID50's (the dose that results in induced effect in 50% of test cultures) of the HTLV-IIIB strain of HIV-1 (2) are inoculated into each culture. Control cultures receive compound or virus only. Four days after virus challenge, cultures are visually examined for the frequency and distribution of virus-induced giant cell syncytia. The percent inhibition by the test compound is determined by comparison with control values. Confirmation of the presence or absence of virus replication is accomplished by harvesting the cell free culture fluids from all experimental groups to determine the presence or absence of infectious progeny through the induction of syncytia formation in secondary human T-cell cultures after 3 days.

MTT assay (cytotoxicity) = type: cell-based; settings: human; H9 cells; five days incubation
Description: In order to roughly assess the cytotoxicity of the compounds provided by the invention, several such compounds were tested in the MTT Assay described below. Compounds having a relatively high CC50 are preferred.
The MTT [3-(4,5-dimethylthiazol-2-yl)-2,5 diphenyl tetrazolium bromide) assay is based on cleavage of tetrazolium bromide by metabolically active cells, resulting in a highly quantitative blue color. This assay has been previously described (1) but has been optimized for the purposes of the testing reported herein.
The H9 cell line (2), an established human lymphoma suspension cell line grown in RPMI 1640 supplemented with 10% fetal bovine serum, is used as the target cell line in the assay. Cells (100µL) are plated in microtest plate wells at a concentration of 10^5 cells per mL in the presence of varying concentrations of inhibitor. The cells are incubated at 37°C in a humidified CO2 incubator. Five days later, 20µL of MTT (5mg/mL in RPMI 1640, sonicated, 0.2 micron filtered, and stored at 4°C) is added to each well. After 4 hours additional incubation at 37°C, 60µL of Triton-X is added to each well and thoroughly mixed to aid the solubilization of the crystals. Absolute ethanol (5µL) is added to each well and the resulting mixture is incubated for 30 minutes at 60°C and immediately read on a plate reader (Dynatech) at a wavelength of 570nm.
Data from this assay are used to generate a nonlinear regression analysis which yields an CC50.

| Structure (SMILES) | IC50 [1] | CC50 at 120 h (MTT assay (cytotoxicity)) |
| --- | --- | --- |
| CN1C(=O)c2cccnc2N(C2CC2)c2nc(-c3cc[nH]c3)ccc21 [Example 25, 11-Cyclopropyl-5,11-dihydro-5-methyl-2-(3-pyrrolyl)-6H-dipyrido[3,2-b:2',3'-e][1,4]diazepin-6-one] | 80 µM | > 80 µM |
| CCN1c2ncccc2C(=O)N(C)c2ccc(-c3cn[nH]c3)nc21 [Example 1, 5,11-Dihydro-11-ethyl-5-methyl-2-(4-pyrazolyl)-6H-dipyrido[3,2-b:2'3'-e][1,4]diazepin-6-one] | 0.04 µM | > 60 µM |
| CCN1c2ncccc2C(=O)N(C)c2ccc(-c3cc[nH]c3)nc21 [Example 12, 5,11-Dihydro-11-ethyl-5-methyl-2-(3-pyrrolyl)-6H-dipyrido[3,2-b:2',3'-e][1,4]diazepin-6-one] | 0.04 µM | > 50 µM |
| CN1C(=O)c2cccnc2N(C2CC2)c2nc(-c3cn[nH]c3)ccc21 [Example 6, 5,11-Dihydro-5-methyl-11-c-propyl-2-(4-pyrazolyl)-6H-dipyrido[3,2-b:2',3'-e][1,4]diazepin-6-one] | 0.01 µM | > 60 µM |
